Reference: US20200121620A1, “SENOLYTIC COMPOUNDS” (UNITED KINGDOM RESEARCH AND INNOVATION, priority 2017, published 2020)

What was measured:
IMR90 ER:RAS E6/E7 cells = assay: Killing of IMR90 ER:RAS E6/E7 cells (RAS signalling without senescence); assay type: cell-based, human; conditions: 1, 5 and 10 μM; 4OHT vs DMSO; FIG. 5
Description: In these experiments the compounds were tested side by side with a control ABT-263 (the de facto gold standard senolytic compound) (Chang et al., 2016; Yosef et al., 2016; Zhu et al., 2016). Experiments were conducted to test the ability of the compounds to behave as senolytics during OIS (using IMR90 ER:RAS, FIG. 3 and HMEC hTERT ER:RAS, FIG. 4). […] To understand whether the selective killing of senescent IMR90 ER:RAS was a consequence of senescence induction or of activation of RAS signaling, experiments were conducted in isogenic IMR90 ER:RAS E6/E7 cells. In these cells, RAS signalling is induced by adding 100 nM 4OHT that activates the ER:RAS fusion protein. However, expression of the E6/E7 protein prevents senescence induction.

[1] = tested on: senescent cells in the lung; assay: Elimination of senescent cells induced by whole body irradiation in mice; assay type: in vivo; conditions: 6 Gray whole body irradiation; 2 months later treated for 4 consecutive days; FIG. 16
Excerpt: (A) Experimental set up, mice (n=5 per group) were irradiated with 6 Gray to induce senescence. […] (B) Cryosections of lungs obtained from control and irradiated mice were stained with hematoxilin and eosin (to reveal tissue architecture), and SA-β-Gal (to reveal senescent cells). Senescent cells accumulate in the bronchioles of irradiated mice. (C) Quantification of the lung area positive for SA-β-Gal staining. […] (D). Representative pictures of lung cryosections.
Whole-body irradiation is known to cause senescence. In irradiated mice, senescent cells accumulate in different tissues, including the lung (Chang et al., 2016; Yosef et al., 2016).

IMR90 ER:RAS cells = assay: Senolytic activity in IMR90 ER:RAS cells undergoing oncogene-induced senescence (4OHT) vs DMSO-treated non-senescent cells; conditions: 4OHT vs DMSO; FIG. 11
Description: FIG. 1: (A) IMR90 ER:RAS cells were induced to undergo senescence by treating them with 100 nM 4OHT for 6 days. At that point, 10 μM of the indicated drugs was added. In parallel, the same treatments were carried out in IMR90 ER:RAS cells treated with DMSO (−4OHT). […] Cells were fixed at day 6, 8 and 10 after 4OHT induction and stained with crystal violet to assess cell viability. T, Tyr-AG879; P, PF-573228; C, Cyclosporine. (B) A similar experiment to (A) was conducted and cells at day 10 post-induction were fixed and stained with DAPI to assess cell numbers
In the setup used, IMR90 ER:RAS cells were treated with 100 nM 4OHT to induce OIS (oncogene induced senescence) and activate the ER:RAS fusion protein. 6 days after 4OHT induction (+4OHT), once cells were fully senescent, the agents to be tested were added at a concentration of 10 μM, and cell numbers were assessed 4 days after by DAPI stained couple to automated microscopy. Alternatively, cells were fixed and stained with crystal violet. In parallel, the same treatments were carried out in IMR90 ER:RAS cells treated with DMSO (−4OHT).
IMR90 ER:RAS cells were induced to undergo senescence by treating them with 100 nM 4OHT for 6 days. At that point, 10 μM of the indicated drugs was added. In parallel, the same treatments were carried out in IMR90 ER:RAS cells treated with DMSO (−4OHT). […] Cells were fixed at day 6, 8 and 10 after 4OHT induction and stained with crystal violet to assess cell viability. A similar experiment was conducted and cells at day 10 post-induction were fixed and stained with DAPI to assess cell numbers (see FIG. 1).

[2] = tested on: senescent human fibroblasts; conditions: Lui et al, Sci Rep 2015; cited from earlier work

| SMILES | selectivity for killing IMR90 ER:RAS E6/E7 (IMR90 ER:RAS E6/E7 cells) | lung area positive for SA-β-Gal staining (senescent cells) [1] | senolytic effect of statins, preferential killing of cells undergoing OIS (IMR90 ER:RAS cells) | senescence-associated secretory phenotype (SASP) [2] |
| --- | --- | --- | --- | --- |
| c1ccc2c(c1)[IH]c1ccccc1-2 [Diphenyleneiodonium chloride] | displayed selectivity for killing IMR90 ER:RAS E6/E7 | partially eliminated |  |  |
| CCC(C)(C)C(=O)O[C@H]1C[C@@H](C)C=C2C=C[C@H](C)[C@H](CC[C@@H]3C[C@@H](O)CC(=O)O3)[C@H]21 [Simvastatin] |  |  | behaves as a senolytic in a concentration dependent manner | decrease the senescence-associated secretory phenotype (SASP) |
